# Source: patent US8022206B2 (OSI Pharmaceuticals, LLC, priority 2008, dated 2011)
# Tests used:
# [1] = target: RON (human) (Homo sapiens, UniProt Q04912); assay: RON (human) AlphaScreen kinase assay, Km of ATP; format: biochemical; conditions: AlphaScreen, Km of ATP; read-out: RON biochemical IC50
# In short: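 Reaction was started with enzyme and run 30 min at RT. PT66 donor/acceptor beads in an EDTA-containing Tris pH 7.5 buffer were then added, and the signal was read after 1 h.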
# [2] = target: MET (human) (Homo sapiens, UniProt P08581); assay: MET (human) AlphaScreen kinase assay, Km of ATP; format: biochemical; conditions: AlphaScreen, Km of ATP; read-out: Met biochemical IC50
# Chain of MET (human) (P08581 25-1390): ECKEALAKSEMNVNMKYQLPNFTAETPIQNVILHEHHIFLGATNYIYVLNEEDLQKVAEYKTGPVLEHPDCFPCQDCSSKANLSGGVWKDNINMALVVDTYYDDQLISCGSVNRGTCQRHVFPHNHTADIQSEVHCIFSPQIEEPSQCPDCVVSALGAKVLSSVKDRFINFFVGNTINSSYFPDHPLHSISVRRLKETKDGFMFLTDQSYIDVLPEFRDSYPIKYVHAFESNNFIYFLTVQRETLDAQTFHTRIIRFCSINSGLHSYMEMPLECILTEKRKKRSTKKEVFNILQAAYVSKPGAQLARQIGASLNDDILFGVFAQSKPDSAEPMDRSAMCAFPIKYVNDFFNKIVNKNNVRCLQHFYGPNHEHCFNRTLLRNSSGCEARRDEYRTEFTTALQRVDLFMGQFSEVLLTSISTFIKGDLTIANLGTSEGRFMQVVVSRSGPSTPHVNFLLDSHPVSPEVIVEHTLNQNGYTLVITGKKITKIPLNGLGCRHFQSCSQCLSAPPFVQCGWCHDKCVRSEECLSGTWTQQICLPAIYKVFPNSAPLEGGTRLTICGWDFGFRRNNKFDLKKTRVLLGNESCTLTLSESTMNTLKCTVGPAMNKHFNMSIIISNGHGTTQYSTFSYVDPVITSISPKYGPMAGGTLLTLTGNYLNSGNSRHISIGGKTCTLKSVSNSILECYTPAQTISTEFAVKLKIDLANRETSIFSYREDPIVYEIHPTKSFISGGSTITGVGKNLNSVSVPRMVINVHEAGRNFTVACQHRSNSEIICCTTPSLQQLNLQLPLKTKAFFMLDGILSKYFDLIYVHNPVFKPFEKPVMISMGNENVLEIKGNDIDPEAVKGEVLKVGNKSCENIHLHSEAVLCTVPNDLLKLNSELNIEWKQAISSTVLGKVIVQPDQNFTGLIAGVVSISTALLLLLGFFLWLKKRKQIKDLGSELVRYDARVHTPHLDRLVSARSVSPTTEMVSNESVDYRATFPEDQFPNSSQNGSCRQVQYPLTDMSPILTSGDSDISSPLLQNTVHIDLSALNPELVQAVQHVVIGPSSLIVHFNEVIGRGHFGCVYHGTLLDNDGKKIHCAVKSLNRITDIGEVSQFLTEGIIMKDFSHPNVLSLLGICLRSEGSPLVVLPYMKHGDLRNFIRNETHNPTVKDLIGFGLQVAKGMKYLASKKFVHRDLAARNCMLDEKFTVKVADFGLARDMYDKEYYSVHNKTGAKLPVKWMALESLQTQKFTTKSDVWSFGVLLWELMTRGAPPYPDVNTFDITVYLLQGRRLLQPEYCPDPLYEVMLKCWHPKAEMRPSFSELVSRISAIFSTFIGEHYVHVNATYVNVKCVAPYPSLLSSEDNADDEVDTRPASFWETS
# In short: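 Human MET at lot-optimised concentration in 50 mM Tris pH 7.4 buffer with 1 mM DTT, compound at 1% DMSO final; enzyme starts the reaction, 60 min at RT.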
# Chain of RON (human) (Q04912 25-1400): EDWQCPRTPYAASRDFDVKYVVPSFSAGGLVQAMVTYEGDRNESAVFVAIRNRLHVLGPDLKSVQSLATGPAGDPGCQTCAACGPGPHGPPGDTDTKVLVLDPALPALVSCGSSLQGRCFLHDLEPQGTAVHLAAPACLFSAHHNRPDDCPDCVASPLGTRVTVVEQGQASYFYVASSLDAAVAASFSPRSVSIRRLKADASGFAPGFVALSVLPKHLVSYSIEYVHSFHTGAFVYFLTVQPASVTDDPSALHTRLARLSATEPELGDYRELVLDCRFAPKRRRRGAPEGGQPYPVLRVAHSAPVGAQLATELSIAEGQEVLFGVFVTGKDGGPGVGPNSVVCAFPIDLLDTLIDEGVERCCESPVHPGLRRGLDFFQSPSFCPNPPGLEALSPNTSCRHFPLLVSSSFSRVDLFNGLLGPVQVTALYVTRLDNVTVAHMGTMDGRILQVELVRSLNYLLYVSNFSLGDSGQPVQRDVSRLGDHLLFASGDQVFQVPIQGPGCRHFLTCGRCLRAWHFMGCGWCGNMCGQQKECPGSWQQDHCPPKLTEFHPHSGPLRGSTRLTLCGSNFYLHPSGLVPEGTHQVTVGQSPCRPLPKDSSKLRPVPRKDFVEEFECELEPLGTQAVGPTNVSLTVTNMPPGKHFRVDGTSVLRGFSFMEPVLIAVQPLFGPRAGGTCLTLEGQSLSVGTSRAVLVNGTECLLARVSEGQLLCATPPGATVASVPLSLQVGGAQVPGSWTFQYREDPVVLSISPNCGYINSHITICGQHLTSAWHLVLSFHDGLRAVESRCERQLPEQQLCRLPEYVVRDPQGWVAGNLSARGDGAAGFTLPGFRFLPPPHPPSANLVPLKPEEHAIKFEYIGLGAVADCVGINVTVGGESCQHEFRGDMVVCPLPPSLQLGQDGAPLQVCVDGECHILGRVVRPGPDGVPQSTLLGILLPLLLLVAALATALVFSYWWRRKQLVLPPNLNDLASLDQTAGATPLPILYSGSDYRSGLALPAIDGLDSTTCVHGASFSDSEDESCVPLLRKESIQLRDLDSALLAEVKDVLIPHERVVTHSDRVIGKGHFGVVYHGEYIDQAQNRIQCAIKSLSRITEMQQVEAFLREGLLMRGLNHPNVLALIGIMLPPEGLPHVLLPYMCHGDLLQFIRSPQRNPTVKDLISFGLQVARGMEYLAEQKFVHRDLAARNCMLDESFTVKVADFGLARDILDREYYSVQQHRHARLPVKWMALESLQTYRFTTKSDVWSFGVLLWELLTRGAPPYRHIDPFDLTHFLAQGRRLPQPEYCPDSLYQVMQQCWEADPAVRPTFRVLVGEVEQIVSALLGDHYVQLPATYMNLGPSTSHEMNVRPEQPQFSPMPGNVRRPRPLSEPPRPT
SMILES,IC50 [1] [nM],IC50 [2] [nM]
"CC(C)NC(=O)c1csc(-c2coc3c(O[C@H](C)c4c(Cl)ccc(F)c4Cl)c(N)ncc23)c1 [Example 330, 5-{6-Amino-7-[(R)-1-(2,6-dichloro-3-fluorophenyl)ethoxy]furo[3,2-c]pyridin-3-yl}thiophene-3-carboxylic acid Isopropylamide]",5000 to 20000,5000 to 20000
"C[C@@H]1CN(C(=O)c2ccc(-c3coc4c(O[C@H](C)c5c(Cl)ccc(F)c5Cl)c(N)ncc34)cc2)C[C@H](C)N1 (relative stereo) [Example 294, (4-{6-Amino-7-[(R)-1-(2,6-dichloro-3-fluorophenyl)ethoxy]furo[3,2-c]pyridin-3-yl}phenyl)-((3S*,5R*)-3,5-dimethylpiperazin-1-yl)methanone]",< 500,< 500
"CC(Oc1c(N)ncc2c(-c3cnn(C4CCNCC4)c3)coc12)c1c(F)cc(Cl)cc1Cl (stereo not drawn) [Example 372, 7-[1-(2,4-Dichloro-6-fluorophenyl)ethoxy]-3-(1-piperidin-4-yl-1H-pyrazol-4-yl)furo[3,2-c]pyridin-6-ylamine]",500 to 5000,< 500
"C[C@@H](Oc1c(N)ncc2c(-c3cnn(C4CCNCC4)c3)coc12)c1nnc2ccc(-c3ccccc3)nn12 [Example 476, 7-[(1R)-1-(6-phenyl[1,2,4]triazolo[4,3-b]pyridazin-3-yl)ethoxy]-3-[1-(piperidin-4-yl)-1H-pyrazol-4-yl]furo[3,2-c]pyridin-6-amine]",500 to 5000,< 500
"CC(C)NC(=O)c1coc2c(O[C@H](C)c3c(Cl)ccc(F)c3Cl)c(N)ncc12 [Example 183, 6-Amino-7-[(R)-1-(2,6-dichloro-3-fluorophenyl)ethoxy]furo[3,2-c]pyridine-3-carboxylic acid isopropylamide]",500 to 5000,500 to 5000
"C[C@@H](Oc1c(N)ncc2c(-c3cc(C(=O)N(C)C)cs3)coc12)c1c(Cl)ccc(F)c1Cl [Example 328, 5-{6-Amino-7-[(R)-1-(2,6-dichloro-3-fluorophenyl)ethoxy]furo[3,2-c]pyridin-3-yl}thiophene-3-carboxylic acid Dimethylamide]",500 to 5000,500 to 5000
"C[C@@H](Oc1c(N)ncc2c(C3=CCN(C(=O)C4CCCCN4C)CC3)coc12)c1c(Cl)ccc(F)c1Cl (stereo partly drawn) [Example 236, (4-{6-Amino-7-[(R)-1-(2,6-dichloro-3-fluorophenyl)ethoxy]-furo[3,2-c]pyridin-3-yl}-3,6-dihydro-2H-pyridin-1-yl)-(1-methylpiperidin-2-yl)methanone]",< 500,< 500
"C[C@@H](Oc1c(N)ncc2c(-c3cnn(C4CCN(S(C)(=O)=O)CC4)c3)coc12)c1c(Cl)ccc(F)c1Cl [Example 275, 7-[(1R)-1-(2,6-Dichloro-3-fluorophenyl)ethoxy]-3-{1-[1-(methyl-sulfonyl)piperidin-4-yl]-1H-pyrazol-4-yl}furo[3,2-c]pyridin-6-amine]",500 to 5000,500 to 5000
"C[C@@H](Oc1c(N)ncc2c(-c3ccc[nH]3)coc12)c1c(Cl)ccc(F)c1Cl [Example 133, 7-[(R)-1-(2,6-Dichloro-3-fluorophenyl)ethoxy]-3-(1H-pyrrol-2-yl)furo[3,2-c]pyridin-6-amine]",500 to 5000,500 to 5000
"C[C@@H](Oc1c(N)ncc2c(C3=CCN(C(=O)C(O)C(F)(F)F)CC3)coc12)c1c(Cl)ccc(F)c1Cl (stereo partly drawn) [Example 270, 1-[4-{6-Amino-7-[(1R)-1-(2,6-dichloro-3-fluorophenyl)ethoxy]furo[3,2-c]pyridin-3-yl}-3,6-dihydropyridin-1(2H)-yl]-3,3,3-trifluoro-2-hydroxypropan-1-one]",500 to 5000,< 500
"C[C@@H](Oc1c(N)ncc2c(-c3cccc(CN4CCCCC4)c3)coc12)c1c(Cl)ccc(F)c1Cl [Example 91, 7-[(R)-1-(2,6-Dichloro-3-fluorophenyl)ethoxy]-3-(3-piperidin-1-ylmethylphenyl)furo[3,2-c]pyridin-6-ylamine]",< 500,< 500

# The remaining lines, values ahead:
IC50 [1] [nM],IC50 [2] [nM],SMILES
500 to 5000,500 to 5000,"CCNC(=O)c1ccc(-c2coc3c(O[C@H](C)c4c(Cl)ccc(F)c4Cl)c(N)ncc23)s1 [Example 207, 5-{6-Amino-7-[(R)-1-(2,6-dichloro-3-fluorophenyl)ethoxy]-furo[3,2-c]pyridin-3-yl}-thiophene-2-carboxylic acid ethyl amide]"
< 500,< 500,"C[C@@H](Oc1c(N)ncc2c(-c3ccc(CN4CCCCC4)s3)coc12)c1c(Cl)ccc(F)c1Cl [Example 215, 7-[(R)-1-(2,6-Dichloro-3-fluorophenyl)ethoxy]-3-(5-piperidin-1-ylmethylthiophen-2-yl)-furo[3,2-c]pyridin-6-ylamine]"
500 to 5000,< 500,"CC(Oc1c(N)ncc2c(-c3cnn(C4CCNCC4)c3)coc12)c1c(F)cccc1Cl (stereo not drawn) [Example 401, 7-[1-(2-Chloro-6-fluorophenyl)ethoxy]-3-(1-piperidin-4-yl-1H-pyrazol-4-yl)furo[3,2-c]pyridin-6-ylamine]"
500 to 5000,500 to 5000,"CC(Oc1c(N)ncc2c(-c3cnn(C4CCNCC4)c3)coc12)c1ccc2ccccc2c1 (stereo not drawn) [Example 432, 7-(1-Naphthalen-2-ylethoxy)-3-(1-piperidin-4-yl-1H-pyrazol-4-yl)furo[3,2-c]pyridin-6-ylamine]"
500 to 5000,< 500,"C[C@@H](Oc1c(N)ncc2c(-c3cnn(C4CCNCC4)c3)c(Br)oc12)c1c(Cl)ccc(F)c1Cl [Example 167, 2-Bromo-7-[(R)-1-(2,6-dichloro-3-fluorophenyl)ethoxy]-3-(1-piperidin-4-yl-1H-pyrazol-4-yl)-furo[3,2-c]pyridin-6-ylamine]"
< 500,< 500,"C[C@@H](N)C(=O)N1CC=C(c2coc3c(O[C@H](C)c4c(Cl)ccc(F)c4Cl)c(N)ncc23)CC1 [Example 252, (2R)-2-Amino-1-[4-{6-amino-7-[(1R)-1-(2,6-dichloro-3-fluoro-phenyl)ethoxy]furo[3,2-c]pyridin-3-yl}-3,6-dihydropyridin-1(2H)-yl]propan-1-one]"
5000 to 20000,500 to 5000,"CNC(=O)c1csc(-c2coc3c(O[C@H](C)c4c(Cl)ccc(F)c4Cl)c(N)ncc23)c1 [Example 327, 5-{6-Amino-7-[(R)-1-(2,6-dichloro-3-fluorophenyl)ethoxy]furo[3,2-c]pyridin-3-yl}thiophene-3-carboxylic acid methylamide]"
500 to 5000,500 to 5000,"C[C@@H](Oc1c(N)ncc2c(-c3cccc(CO)c3)coc12)c1c(Cl)ccc(F)c1Cl [Example 57, (3-{6-Amino-7-[(R)-1-(2,6-dichloro-3-fluorophenyl)ethoxy]-furo[3,2-c]pyridin-3-yl}phenyl)methanol]"
500 to 5000,500 to 5000,"C[C@@H](Oc1c(N)ncc2c(-c3cccc(N)c3)coc12)c1c(Cl)ccc(F)c1Cl [Example 66, 3-(3-Aminophenyl)-7-[(R)-1-(2,6-dichloro-3-fluorophenyl)ethoxy]-furo[3,2-c]pyridin-6-ylamine]"
500 to 5000,500 to 5000,"CNC(=O)c1cccc(C(C)Oc2c(N)ncc3c(-c4cnn(C5CCNCC5)c4)coc23)c1 (stereo not drawn) [Example 412, 3-{1-[6-Amino-3-(1-piperidin-4-yl-1H-pyrazol-4-yl)furo[3,2-c]pyridin-7-yloxy]ethyl}-N-methylbenzamide]"
